According to the METLIN SMRT retention time set (Domingo-Almenara et al. 2019):

Test: gradient 5% acetonitrile 3 min, to 50% in 2 min, to 85% in 15 min, held 3 min, 100 µL/min
Details: column: Zorbax Extend-C18 2.1 x 50 mm; eluents: water / acetonitrile, 0.1% formic acid
Method in brief: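 Standards, all pure, were combined into mixtures of ~100 molecules and run at 100 μL/min on a Zorbax Extend-C18 column (2.1 × 50 mm, 1.8 μm) with water and acetonitrile, each containing 0.1% formic acid. A coupled quadrupole time-of-flight mass spectrometer operated in positive and negative ionization mode. Retention time values come from computationally picked adduct peaks, each inspected manually.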

RP-LC retention time [s] | SMILES
654 | CCC(CC)C(=O)Nc1c(-c2ccccc2)nc2cc(C)ccn12
714 | CC1CCN(S(=O)(=O)N2CCCC(C(=O)NCCCN3CCc4ccccc4C3)C2)CC1 (stereo not drawn)
842 | Cc1cccc(-n2c(=O)c3c(cc(C)n3C)n(CC(=O)Nc3ccccc3Cl)c2=O)c1
950 | Cc1cc2c(SCC(=O)N3CCCc4ccccc43)ncnc2s1
713 | CCCC(NC(=O)CCc1ccc(OC)cc1)C(=O)Nc1nc2ccccc2[nH]1 (stereo not drawn)
982 | COc1ccc(Cl)cc1NC(=O)N1CCCC(C)(C(=O)NCc2ccc(C)cc2)C1 (stereo not drawn)
1040 | COc1ccc(OC)c(NC(=O)N2CCC3(CC2)Nc2ccccc2-n2cccc23)c1
1080 | CC(C)(C)c1noc(-c2ccnc(-n3cnc(C(=O)N4CCc5ccccc5C4)c3)c2)n1
708 | CSc1ccc(CNC(=O)c2cn3cc(C)ccc3n2)cc1
785 | CC(=O)Nc1ccc(C(=O)NCc2ccc(Br)cc2)c(N2CCOCC2)c1
1120 | Cc1ccccc1-c1nc(-c2ccc3c(c2)nc(C)c(=O)n3C)no1
590 | O=C(Nc1ccccc1)c1ccc(=O)n(CCN2CCOCC2)c1
662 | Cc1nn2c(CNC(=O)c3cccc(Br)c3)c(C)nc2s1
1110 | COc1nc2ccccc2nc1N1CCCC(C(=O)N2CCC(C)CC2)C1 (stereo not drawn)
698 | O=C(c1ccoc1)N1CCN(c2cc(-c3ccccc3)[nH]n2)CC1
991 | O=C(Cn1ccc2ccc(N3CCCCC3)nc21)NCc1ccc(F)cc1Cl
641 | O=C(c1ccccn1)N1CCC(n2nc(-c3ccsc3)ccc2=O)CC1
785 | CN1C(=O)c2cc(C(=O)NCc3ccccc3F)nn2CC1(C)C(=O)NC1CCCCC1 (stereo not drawn)
1250 | CCCOc1nc2ccccc2nc1N1CCCC(C(=O)Nc2ccccc2)C1 (stereo not drawn)
1200 | CC1=NS(=O)(=O)N(Cc2ccccc2)C=C1C(=O)OCc1cc(C)ccc1C
1080 | O=C(CCc1nc(-c2ccc(N3CCCCCC3)cc2)no1)N1CCCC1

RP-LC retention time [s] | SMILES
626 | Cc1ccc(NC(=O)CN2CCc3[nH]c4c(C)c(C)ccc4c(=O)c3C2)cc1
815 | Cc1ccc(NC(=O)N2CCC(n3c(-c4ccco4)nc4cccnc43)C2)cc1F (stereo not drawn)
642 | CC1CCN(CCCNC(=O)c2nnc(-c3ccc(S(=O)(=O)N4CCCC4)cc3)o2)CC1
635 | NC(=O)CSc1nnc(N2CCN(C(=O)c3cc4ccccc4o3)CC2)s1
861 | CCN1c2ccc(F)cc2C(=O)NC12CCN(C(=O)c1ccc(C)cc1C)CC2
986 | Cc1nc(-c2csc(S(=O)(=O)N3CCC(C(=O)Nc4ccc(Cl)cc4)CC3)c2)no1
653 | CN(C)C(=O)c1n[nH]c2c1CN(C(=O)CCC(=O)c1ccc(F)cc1)CC2
1130 | CC(C)c1noc(C2(NC(=O)c3ccc(C(F)(F)F)cc3)CCCCC2)n1
763 | O=C(CN1C(=O)COc2ccc(C(=O)N3CCc4ccccc4C3)cc21)N1CCCC1
646 | CC1CC(=O)Nc2cc(S(=O)(=O)N3CCN(c4ccccn4)CC3)ccc2S1 (stereo not drawn)
713 | CSc1ccc(NC(=O)N2CCC(c3cc(N)on3)CC2)cc1
875 | CCOC(=O)N1CCN(c2ncc(S(=O)(=O)c3ccc(C)cc3)c(N)n2)CC1
679 | Cc1ccccc1-n1ccn(Cc2nc(-c3ccc(Cl)c(F)c3)no2)c(=O)c1=O
637 | CCc1nc2ccc(-c3noc(CNC(=O)c4ccccc4)n3)cc2n1CC
698 | CCc1ccccc1NC(=O)CN1C(=O)NC2(CCC(C)CC2)C1=O (stereo not drawn)
1280 | Cc1cccc(Sc2nccnc2N2CCCC(C(=O)N3CCN(c4ccccc4F)CC3)C2)c1 (stereo not drawn)
666 | CN(CCNC(=O)c1sc2ncccc2c1-n1cccc1)Cc1ccccc1
755 | CCOC(=O)c1cnc(N2CCN(Cc3ccccc3)CC2)c2ccccc12
650 | O=C1CCC(NC(=O)c2ccccc2)C(=O)N1 (stereo not drawn)
762 | Cc1ccccc1CNC(=O)c1cn2c(n1)CCCC2
747 | O=C(Cc1cccs1)NCc1nnnn1-c1ccc(Cl)cc1

Further lines, the compound ahead of its results:

SMILES | RP-LC retention time [s]
CCOC(=O)c1cnc2c(-c3cccc(Cl)c3)c(COC)nn2c1N | 1150
COc1ccc(NC(=O)CN2CCc3[nH]c4c(C)c(C)ccc4c(=O)c3C2)c(OC)c1 | 626
Cc1ccc(-n2c(CN3CCN(C(=O)Nc4ccc5c(c4)OCCO5)CC3)nc3cccnc32)cc1 | 676
CCc1nnc(-c2cc(S(=O)(=O)NCCCc3ccccc3)cn2C)o1 | 864
CCOc1cccc(-c2noc(Cc3nnc(-c4ccccc4)o3)n2)c1 | 1060
CCOc1ccc(-c2cn3ccn(-c4ccc(C)cc4C)c(=O)c3n2)cc1 | 921
O=C(Nc1ccc(Cl)cc1)N1CCC(n2c(C(F)(F)F)nc3cccnc32)CC1 | 942
COc1ccc(-c2nc(C3CC(=O)N(c4ccc(Cl)cc4)C3)no2)cc1F (stereo not drawn) | 1030
Cc1nnc2ccc(N3CCN(C(=O)COc4ccc5c(c4)OCO5)CC3)nn12 | 617
COc1ccc(NC(=O)C2(C)Oc3cccnc3N(C)C2=O)cc1Cl (stereo not drawn) | 842
CCN1CCN(CCCNc2ccc(-c3nc(-c4ccc(C)cc4)no3)cn2)CC1 | 646
Cn1c(=O)c2cc(C(=O)Nc3ccc(Cl)cc3)cnc2n(-c2ccccc2)c1=O | 962
CNC(=O)c1cc(C(=O)c2ccc3nc(Nc4cccc(C(F)(F)F)c4)[nH]c3c2)ccn1 | 747
COc1ccc(N2CCN(C(=O)c3cc(NC(C)=O)cc4nc(C)ccc34)CC2)cc1 | 603
CCc1ccc(NC(=O)CN2CCc3[nH]c4c(OC)ccc(Cl)c4c(=O)c3C2)cc1 | 661
Cc1ccc(NC(=O)Cn2c(=O)n(-c3ccc(F)cc3)c3ncccc32)c(C)c1 | 875
CC1CCN(c2cc(-c3noc(C(=O)NC4CCCCCC4)n3)ccn2)CC1 | 1010
Cc1cnn(Cc2cc(C(=O)N3C[C@@H](CO)[C@H](N(C)C)C3)no2)c1 | 566
CCc1nnc([C@@H]2CC(F)(F)CN2C(=O)CCn2cccn2)o1 | 639
O=C([C@@H]1C[C@H](F)CN1S(=O)(=O)c1ccc(F)c(Cl)c1)N1CCCCC1 | 875
CCCn1cc(CCNS(=O)(=O)c2ccc(Cl)cc2)c2cccnc21 | 891
O=c1ccc(-c2nc(-c3ccncc3)no2)nn1Cc1cccc(Br)c1 | 919
CC[C@H](C)NC(=O)Cc1nnc(-c2ccc(OC)cc2)o1 | 707

SMILES | RP-LC retention time [s]
O=S(=O)(Nc1ccc(Oc2nc3ccccc3n3cnnc23)cc1)c1cccc2nsnc12 | 755
O=C(NCC1CCN(c2ncccn2)CC1)C(=O)NCC(F)(F)F | 626
CCNC(=O)c1nnn(-c2cc(C(F)(F)F)ccc2Cl)c1-c1cccnc1 | 796
O=C(c1ccoc1)N1CCC(c2cc(-c3ccc(F)cc3)n[nH]2)CC1 | 777
COc1cc(OC)cc(-c2nc(-c3ccc4c(c3)oc(=O)n4C(C)C)no2)c1 | 1080
Fc1ccc(-c2nc(-c3cccc(-c4ccn[nH]4)c3)no2)c(F)c1 | 992
CNC(=O)[C@@H]1C[C@@H](O)CN1C1CCN(C(=O)C2CCCCC2)CC1 | 577
CCSC1=NCCN1C(=O)c1ccc(C(F)(F)F)cc1 | 679
CCCCc1ccc(Nc2ncccc2S(N)(=O)=O)cc1 | 1060
CCCC(=O)Nc1ccc2c(c1)CN(C(=O)c1ccc(F)c(F)c1)C(C(=O)N(C)C)C2 (stereo not drawn) | 736
Fc1cccc(-c2nc(-c3ccnc(N4CCOCC4)c3)no2)c1 | 967
COc1cc(NC(=O)Cn2nc3nc(N4CCCC(C)C4)ccn3c2=O)cc(OC)c1 (stereo not drawn) | 770
Cc1ccc(S(=O)(=O)N2CCCC(Cn3c(C4CC4)nc4cccnc43)C2)cc1 (stereo not drawn) | 790
COC(=O)c1cccc(N2C=C(C#N)S(=O)(=O)c3c(F)cccc32)c1 | 847
O=C1OC(c2ccccc2)=N/C1=C\c1ccc(N(CCCl)CCCl)cc1 | 1240
O=c1c(=O)n(-c2ccccc2)ccn1Cc1nc(-c2ccc(Cl)cc2)no1 | 877
O=c1c(=O)n(-c2cccc(Cl)c2)ccn1Cc1nc(-c2cccc(F)c2)no1 | 895
COc1ccc(-c2noc(-c3c(SC)nn(CC(=O)Nc4ccccc4)c3N)n2)cc1 | 934
COc1ccc(C)cc1NS(=O)(=O)c1ccc2c(c1)CCCC(=O)N2 | 709
O=C(C1=CN(c2cccc(F)c2)c2cc(Cl)ccc2S1(=O)=O)N1CCOCC1 | 825
CCCNC(=O)N1CC(c2nc(-c3ccc(F)cc3)no2)C2(CCOCC2)C1 (stereo not drawn) | 793
CCN1CCCC1CNC(=O)CN1C(=O)C2CCCCN2c2ccc(C(=O)N(C)C)cc21 (stereo not drawn) | 596
CCOC(=O)C1CCCN(C(=O)Cc2c(C(=O)O)c(C)cn2CC)C1 (stereo not drawn) | 727
